Patent publication US10485800B2, “Mixed lineage kinase inhibitors for HIV/AIDS therapies” (UNIVERSITY OF ROCHESTER, priority 2012, dated 2019)
pIC50: −log10 of the molar value. Structures can show the parent of a compound that is named as a salt.

What follows are compounds tested against MLK3 (Homo sapiens (Human), UniProt Q16584) (assay: Radiometric filter plate MLK3 assay). Conditions: 2 μM cold ATP (Km), 1 μM inactive MKK7b, twenty minute incubation; read-out: MK3 IC50.
Assay type: biochemical
Protocol: After a twenty minute incubation, the reactions were washed through filter plates and read on a scintillation counter. Results are shown in Table 9 below, in which +++ indicates ≤0.1 μM, ++ indicates >0.1 μM and ≤1 μM, and + indicates >1 μM.

MLK3, sequence (Q16584 whole entry): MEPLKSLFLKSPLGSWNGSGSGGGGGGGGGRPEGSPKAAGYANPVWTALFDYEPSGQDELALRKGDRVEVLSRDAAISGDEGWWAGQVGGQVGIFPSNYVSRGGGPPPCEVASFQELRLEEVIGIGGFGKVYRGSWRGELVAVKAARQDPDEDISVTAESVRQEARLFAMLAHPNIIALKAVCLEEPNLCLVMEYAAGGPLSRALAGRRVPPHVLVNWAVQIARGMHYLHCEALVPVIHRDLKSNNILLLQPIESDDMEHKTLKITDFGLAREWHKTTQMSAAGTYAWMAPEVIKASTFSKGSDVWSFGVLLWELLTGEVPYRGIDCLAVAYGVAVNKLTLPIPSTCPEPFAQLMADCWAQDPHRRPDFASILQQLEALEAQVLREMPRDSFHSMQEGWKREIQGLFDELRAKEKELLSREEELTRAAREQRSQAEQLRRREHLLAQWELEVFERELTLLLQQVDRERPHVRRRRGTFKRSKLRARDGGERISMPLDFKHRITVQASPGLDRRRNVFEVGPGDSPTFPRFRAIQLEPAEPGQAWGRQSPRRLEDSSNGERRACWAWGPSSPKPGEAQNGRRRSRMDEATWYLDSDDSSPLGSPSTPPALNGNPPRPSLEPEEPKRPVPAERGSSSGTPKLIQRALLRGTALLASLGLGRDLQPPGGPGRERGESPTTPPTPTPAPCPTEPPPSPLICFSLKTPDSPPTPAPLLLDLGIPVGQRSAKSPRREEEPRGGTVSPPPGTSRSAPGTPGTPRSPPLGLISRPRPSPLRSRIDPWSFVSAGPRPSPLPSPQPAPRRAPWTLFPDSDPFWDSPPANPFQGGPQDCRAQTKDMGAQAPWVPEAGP

Row | Compound | pIC50
1 | O=c1[nH]c2ncc(-c3ccc(N4CCOCC4)cc3)nc2n1-c1ccc2[nH]ncc2c1 [Example 89, 1-(1H-indazol-5-yl)-6-(4-morpholinophenyl)-1H-imidazo[4,5-b]pyrazin-2(3H)-one] | < 6.00
2 | COc1cc(-c2cnc3[nH]cc(-c4ccc5[nH]ccc5c4)c3c2)ccc1OCCN1CCNCC1 [Example 34, 3-(1H-indol-5-yl)-5-(3-methoxy-4-(2-(piperazin-1-yl)ethoxy)phenyl)-1H-pyrrolo[2,3-b]pyridine] | > 7.00
3 | COc1cc(-c2cnc3[nH]cc(-c4ccc5[nH]ccc5c4)c3n2)ccc1N [Example 38, 4-(7-(1H-indol-5-yl)-5H-pyrrolo[3,2-b]pyrazin-2-yl)-2-methoxyaniline] | > 7.00
4 | CCS(=O)(=O)N1CCN(Cc2ccc(-c3cnc4[nH]cc(-c5ccc6[nH]ccc6c5)c4c3)cc2)CC1 [Example 199] | > 7.00
5 | CC(C)CC(=O)N1CCN(Cc2ccc(-c3cnc4[nH]cc(-c5ccc6[nH]ccc6c5)c4c3)cc2)CC1 [Example 204] | > 7.00
6 | COc1cc(-c2cnc3[nH]c(=S)n(CC4CC4)c3n2)cc(OC)c1OC [Example 127, 1-(cyclopropylmethyl)-6-(3,4,5-trimethoxyphenyl)-1H-imidazo[4,5-b]pyrazine-2(3H)-thione] | < 6.00
7 | Cc1cc(C)cc(-c2cnc3[nH]c(=O)n(-c4ccc5[nH]ccc5c4)c3n2)c1 [Example 46, 6-(3,5-dimethylphenyl)-1-(1H-indol-5-yl)-1H-imidazo[4,5-b]pyrazin-2(3H)-one] | < 6.00
8 | CCC(=O)N1CCN(Cc2ccc(-c3cnc4[nH]cc(-c5ccc6[nH]ccc6c5)c4c3)cc2)CC1 [Example 197] | > 7.00
9 | COc1cc(OC)cc(-c2cnc3[nH]c(=O)n(-c4ccc5[nH]ccc5c4)c3n2)c1 [Example 65, 6-(3,5-dimethoxyphenyl)-1-(1H-indol-5-yl)-1H-imidazo[4,5-b]pyrazin-2(3H)-one] | < 6.00
10 | CN1CCN(c2cc(-c3cnc4[nH]c(=O)n(-c5ccc6[nH]ccc6c5)c4n3)ccn2)CC1 [Example 66, 1-(1H-indol-5-yl)-6-(2-(4-methylpiperazin-1-yl)pyridin-4-yl)-1H-imidazo[4,5-b]pyrazin-2(3H)-one] | < 6.00
11 | O=c1[nH]c2ncc(-c3cc(F)cc(F)c3)nc2n1-c1ccc2[nH]ccc2c1 [Example 61, 6-(3,5-difluorophenyl)-1-(1H-indol-5-yl)-1H-imidazo[4,5-b]pyrazin-2(3H)-one] | < 6.00
12 | COc1cc(-c2cnc3[nH]c(=O)n(CC4CC4)c3c2)cc(OC)c1OC [Example 125, 1-(cyclopropylmethyl)-6-(3,4,5-trimethoxyphenyl)-1H-imidazo[4,5-b]pyridin-2(3H)-one] | < 6.00
13 | CN(C)c1ccc(-c2cnc3[nH]cc(-c4ccc(F)c(Cl)c4)c3c2)cn1 [Example 22, 5-(3-(3-chloro-4-fluorophenyl)-1H-pyrrolo[2,3-b]pyridin-5-yl)-N,N-dimethylpyridin-2-amine] | < 6.00
14 | O=c1[nH]c2ncc(-c3ccc(N4CCOCC4)cc3)nc2n1-c1ccc2scnc2c1 [Example 100, 1-(benzo[d]thiazol-5-yl)-6-(4-morpholinophenyl)-1H-imidazo[4,5-b]pyrazin-2(3H)-one] | < 6.00
15 | COCC(=O)N1CCN(Cc2ccc(-c3cnc4[nH]cc(-c5ccc6[nH]ccc6c5)c4c3)cc2)CC1 [Example 198] | > 7.00
16 | COc1cc(-c2cnc3[nH]cc(-c4ccc(NC(C)=O)cc4)c3c2)cc(OC)c1OC [Example 16, N-(4-(5-(3,4,5-trimethoxyphenyl)-1H-pyrrolo[2,3-b]pyridin-3-yl)phenyl)acetamide] | > 7.00
17 | CN1CCN(Cc2ccc(-c3c[nH]c4ncc(-c5ccc(C(N)=O)cc5)cc34)cc2)CC1 [Example 162, 4-{3-[4-(4-methyl-piperazin-1-ylmethyl)-phenyl]-1H-pyrrolo[2,3-b]pyridin-5-yl}-benzamide] | > 7.00
18 | NC(=O)c1ccc(-c2c[nH]c3ncc(-c4ccc(C(=O)N5CCNCC5)cc4)cc23)cc1 [Example 149, 4-{5-[4-(piperazine-1-carbonyl)-phenyl]-1H-pyrrolo[2,3-b]pyridin-3-yl}-benzamide, hydrochloride salt] | > 7.00
19 | Cn1ccc2cc(-n3c(=O)[nH]c4ncc(-c5ccc(O)cc5)nc43)ccc21 [Example 42, 6-(4-hydroxyphenyl)-1-(1-methyl-1H-indol-5-yl)-1H-imidazo[4,5-b]pyrazin-2(3H)-one] | < 6.00
20 | O=C1CN(Cc2ccc(-c3cnc4[nH]cc(-c5ccc6[nH]ccc6c5)c4c3)cc2)CCN1 [Example 142, 4-{4-[3-(1H-indol-5-yl)-1H-pyrrolo[2,3-b]pyridin-5-yl]-benzyl}-piperazin-2-one] | > 7.00
21 | O=c1[nH]c2ncc(-c3cc(F)c(O)c(F)c3)nc2n1-c1ccc2[nH]ccc2c1 [Example 59, 6-(3,5-difluoro-4-hydroxyphenyl)-1-(1H-indol-5-yl)-1H-imidazo[4,5-b]pyrazin-2(3H)-one] | > 7.00
22 | CCOC(=O)N1CCN(Cc2ccc(-c3cnc4[nH]cc(-c5ccc6[nH]ccc6c5)c4c3)cc2)CC1 [Example 193] | > 7.00
23 | COc1cc(-c2cnc3[nH]c(=O)n(-c4ccc5[nH]ccc5c4)c3n2)ccc1N [Example 60, 6-(4-amino-3-methoxyphenyl)-1-(1H-indol-5-yl)-1H-imidazo[4,5-b]pyrazin-2(3H)-one] | > 7.00
24 | COc1cc(-c2cnc3c(c2)C(Cc2ccncc2)C(=O)N3)cc(OC)c1OC (centres unmarked) [Example 136, 3-pyridin-4-ylmethyl-5-(3,4,5-trimethoxy-phenyl)-1,3-dihydro-pyrrolo[2,3-b]pyridin-2-one] | < 6.00
25 | COc1cc(-c2cnc3[nH]cc(-c4ccc5c(ccn5C)c4)c3c2)cc(OC)c1OC [Example 24, 3-(1-methyl-1H-indol-5-yl)-5-(3,4,5-trimethoxyphenyl)-1H-pyrrolo[2,3-b]pyridine] | > 7.00
26 | O=c1[nH]c2ncc(-c3ccncc3)nc2n1CC1CC1 [Example 82, 1-(cyclopropylmethyl)-6-(pyridin-4-yl)-1H-imidazo[4,5-b]pyrazin-2(3H)-one] | < 6.00
27 | COc1ccc(-c2cnc3[nH]cc(-c4ccc(C(N)=O)cc4)c3c2)cc1OC [Example 26, 4-(5-(3,4-dimethoxyphenyl)-1H-pyrrolo[2,3-b]pyridin-3-yl)benzamide] | > 7.00
28 | COc1cc(-c2cnc3c(c2)C(Cc2cccnc2)C(=O)N3)cc(OC)c1OC (centres unmarked) [Example 135, 3-pyridin-3-ylmethyl-5-(3,4,5-trimethoxy-phenyl)-1,3-dihydro-pyrrolo[2,3-b]pyridin-2-one] | < 6.00
29 | O=C1CCC(C(=O)N2CCN(Cc3ccc(-c4cnc5[nH]cc(-c6ccc7[nH]ccc7c6)c5c4)cc3)CC2)N1 (centres unmarked) [Example 205] | > 7.00

Same assay, conditions: read-out: MK3 IC50

Row | Compound | pIC50
30 | c1cc2cc(-c3c[nH]c4ncc(-c5ccc(CN6CCNCC6)cc5)cc34)ccc2[nH]1 [Example 168, 3-(1H-indol-5-yl)-5-(4-(piperazin-1-ylmethyl)phenyl)-1H-pyrrolo[2,3-b]pyridine] | 6.00 to 7.00
31 | CC(C)(C)C(=O)N1CCN(Cc2ccc(-c3cnc4[nH]cc(-c5ccc6[nH]ccc6c5)c4c3)cc2)CC1 [Example 191] | 6.00 to 7.00
32 | COc1cc(-c2cnc3[nH]c(=O)n(-c4ccc5[nH]ncc5c4)c3n2)cc(OC)c1OC [Example 83, 1-(1H-indazol-5-yl)-6-(3,4,5-trimethoxyphenyl)-1H-imidazo[4,5-b]pyrazin-2(3H)-one] | 6.00 to 7.00
